Source: publication PMC8151276, “An Integrated Approach toward NanoBRET Tracers for Analysis of GPCR Ligand Engagement” (Molecules, 2021)

Assays:
Assay type in all cases: binding
SSTR3 = molecular target: T1, SSTR3 (Homo sapiens, UniProt P32745); test: NanoBRET screen HiBiT-SSTR3 in HEK293
T1 construct: purchased Promega (in-house HiBiT-GPCR construct library, NanoBRET)
Experimental: (§1) Each tracer candidate was screened across the entire library of HiBiT-GPCR constructs using NanoBRET as the detection modality. As depicted in Figure 4A, the specificity of interactions was evaluated through decrease in BRET due to competitive displacement of a bound tracer by excess parental compound. Each tracer was analyzed for binding to each HiBiT-GPCR fusion in the absence and in the presence of competing parental compound. Briefly, HEK293 cells were transfected with HiBiT-GPCR constructs diluted into promoterless DNA to reduce expression and maximize translocation to the cell surface. Each tracer candidate was then screened at concentrations of 1 μM and 0.1 μM across cells expressing these fusions. Cells were treated for 1.5 h with tracer either alone or in the presence of 20 μM competing parental compound (i.e., control). BRET was measured upon addition of purified LgBiT and subsequent complementation with HiBiT genetically fused to a GPCR. The specificity of interactions was assessed through a decrease in BRET signal due to competitive displacement of the bound tracer. To further gauge the robustness of these interactions, the fold response over the control (i.e., BRETtracer/BRETcontrol) was calculated. We chose a 1.5-fold response, which translates to ≥7-fold signal over noise as the minimal threshold required to score an interaction as positive. […]. Below we highlight the screening results obtained for our exemplary fluorescent tracers based on Clozapine, Amitriptyline and AZD1283.
(§2) HiBiT-GPCR DNA constructs were diluted in 10 mM Tris pH 8 to a final concentration of 0.01 μg/μL, arrayed in 96-well plates and stored at −20 °C. For transfection, HEK293 cells were suspended in Opti-MEM (without phenol red) supplemented with 2% fetal bovine serum (Seradigm) and 100 units/mL penicillin–streptomycin (Gibco) at a final concentration of 220,000 cells/mL and dispensed into white 96-well plates at 90 μL/well. Subsequent transfections and screens were carried using an Agilent Bravo Automated Liquid Handling Platform. First, the 96-well HiBiT DNA arrays were diluted 25-fold in Opti-MEM (without serum or phenol red) to a final concentration of 0.0004 μg/μL and 20 μL of the diluted DNAs were transferred into new 96-well plates. Next, promoterless carrier DNA (1 μg/μL) was diluted 25-fold (0.04 μg/μL) and then dispensed into the diluted arrays at 20 μL/well. Following brief mixing, Viafect transfection reagent (Promega) diluted 16-fold into Opti-MEM was dispensed into the plates at 40 μL/well. After mixing by pipetting, plates were incubated for 10 min on the pipetting station deck. The DNA-transfection reagent complexes were then added to plates containing cells. To facilitate the screen, 10 μL of DNA-transfection reagent complexes were added in duplicates to the top 4 and bottom 4 rows, resulting in two identical 48-well arrays per plate. Plates with transfected cells were incubated for 18–20 h at 37 °C/5% CO2. A screen of each tracer across the entire library using two different concentrations requires duplicate plates of transfected cells. Depending on the number of tracers being screened, transfections can be scaled up using the same ratios. The next day, for each tracer, four 20× screening solutions in tracer dilution buffer (Promega) were prepared: two duplicates at final concentration of 20 μM and two duplicates at a final concentration of 2 μM. A competing unmodified compound was added to one of each duplicate at a final concentration of 400 μM. The four resulting solutions were diluted 4-fold in Opti-MEM without serum or phenol red to generate 5× solutions (5 µM and 0.5 µM tracer +/− 100 μM competing compound). To screen the library, a BioTek MultiFlo FX liquid dispenser was used to dispense 22.5 µL of tracer solution to the top 4 rows and 22.5 µL tracer + competing compound solution to the 4 bottom rows. Plates were briefly mixed on an orbital shaker and incubated for 1.5 h at room temperature. […]

FZD8 = molecular target: T2, FZD8 (Homo sapiens, UniProt Q9H461); test: NanoBRET screen HiBiT-FZD8 in HEK293
T2 construct: purchased Promega (in-house HiBiT-GPCR construct library, NanoBRET)
T2 sequence (Q9H461 28-694): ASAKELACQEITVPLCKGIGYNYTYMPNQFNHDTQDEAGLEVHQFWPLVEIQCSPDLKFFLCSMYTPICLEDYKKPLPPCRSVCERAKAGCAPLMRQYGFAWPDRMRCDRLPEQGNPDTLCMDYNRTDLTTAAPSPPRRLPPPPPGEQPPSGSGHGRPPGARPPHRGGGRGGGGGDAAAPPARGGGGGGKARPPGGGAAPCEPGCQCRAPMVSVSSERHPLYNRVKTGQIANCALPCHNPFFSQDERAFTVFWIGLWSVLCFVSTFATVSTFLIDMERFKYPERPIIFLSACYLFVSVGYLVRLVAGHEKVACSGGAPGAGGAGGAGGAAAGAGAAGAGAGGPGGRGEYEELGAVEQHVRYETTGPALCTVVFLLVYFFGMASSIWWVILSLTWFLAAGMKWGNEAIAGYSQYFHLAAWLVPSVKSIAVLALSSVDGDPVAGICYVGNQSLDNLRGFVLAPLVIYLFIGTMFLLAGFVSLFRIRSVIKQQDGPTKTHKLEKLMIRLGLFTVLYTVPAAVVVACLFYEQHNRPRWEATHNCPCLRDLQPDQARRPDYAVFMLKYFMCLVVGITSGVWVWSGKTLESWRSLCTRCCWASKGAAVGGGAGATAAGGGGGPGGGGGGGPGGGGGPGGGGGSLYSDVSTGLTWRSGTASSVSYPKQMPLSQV
Experimental: as §1, §2

CCR9 = molecular target: T3, CCR9 (Homo sapiens, UniProt P51686); test: NanoBRET screen HiBiT-CCR9 in HEK293
T3 construct: purchased Promega (in-house HiBiT-GPCR construct library, NanoBRET)
T3 sequence (P51686 1-369): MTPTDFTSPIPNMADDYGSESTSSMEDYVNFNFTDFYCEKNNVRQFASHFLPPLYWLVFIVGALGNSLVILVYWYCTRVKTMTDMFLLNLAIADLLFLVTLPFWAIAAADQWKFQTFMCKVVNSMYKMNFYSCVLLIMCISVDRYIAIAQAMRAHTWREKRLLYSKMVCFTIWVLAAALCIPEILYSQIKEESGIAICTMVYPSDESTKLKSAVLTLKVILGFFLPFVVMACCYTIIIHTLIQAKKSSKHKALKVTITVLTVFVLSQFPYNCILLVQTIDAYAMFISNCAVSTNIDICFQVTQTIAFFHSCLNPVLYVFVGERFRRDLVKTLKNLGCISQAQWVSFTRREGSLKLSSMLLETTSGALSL
Experimental: as §1, §2

MC4R = molecular target: T4, MC4R (Homo sapiens, UniProt P32245); test: NanoBRET screen HiBiT-MC4R in HEK293
T4 construct: purchased Promega (in-house HiBiT-GPCR construct library, NanoBRET)
T4 sequence (P32245 whole entry): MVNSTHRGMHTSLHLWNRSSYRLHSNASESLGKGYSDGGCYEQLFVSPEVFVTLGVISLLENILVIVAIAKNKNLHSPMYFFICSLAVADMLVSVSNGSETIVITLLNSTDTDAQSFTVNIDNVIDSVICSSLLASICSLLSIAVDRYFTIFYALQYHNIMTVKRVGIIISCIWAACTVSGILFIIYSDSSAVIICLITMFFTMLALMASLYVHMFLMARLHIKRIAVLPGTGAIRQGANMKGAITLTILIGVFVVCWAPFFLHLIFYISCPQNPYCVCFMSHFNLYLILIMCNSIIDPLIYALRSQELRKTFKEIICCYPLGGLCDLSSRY
Experimental: as §1, §2

T1 sequence (P32745 whole entry): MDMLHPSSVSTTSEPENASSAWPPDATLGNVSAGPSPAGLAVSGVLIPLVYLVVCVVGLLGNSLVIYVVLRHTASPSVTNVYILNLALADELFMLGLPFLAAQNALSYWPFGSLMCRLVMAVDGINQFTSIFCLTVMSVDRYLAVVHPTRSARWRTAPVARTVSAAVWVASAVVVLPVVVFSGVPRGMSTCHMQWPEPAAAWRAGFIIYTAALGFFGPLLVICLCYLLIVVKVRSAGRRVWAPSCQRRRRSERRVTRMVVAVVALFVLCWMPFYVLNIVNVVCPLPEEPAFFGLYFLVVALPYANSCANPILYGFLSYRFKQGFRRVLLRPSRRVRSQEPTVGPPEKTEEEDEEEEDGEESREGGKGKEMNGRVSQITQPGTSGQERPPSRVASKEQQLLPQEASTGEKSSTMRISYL

SMILES | NanoBRET Fold Response (SSTR3; SSTR3, tracer 0.1μM) | NanoBRET Fold Response (SSTR3; SSTR3, tracer 1μM) | NanoBRET Fold Response (FZD8; FZD8, tracer 0.1μM) | NanoBRET Fold Response (FZD8; FZD8, tracer 1μM) | NanoBRET Fold Response (CCR9; CCR9, tracer 0.1μM) | NanoBRET Fold Response (CCR9; CCR9, tracer 1μM) | NanoBRET Fold Response (MC4R; MC4R, tracer 0.1μM) | NanoBRET Fold Response (MC4R; MC4R, tracer 1μM) | NanoBRET Fold Response (SSTR3; tracer at 0.1μM) | NanoBRET Fold Response (SSTR3; tracer at 1μM) | NanoBRET Fold Response (FZD8; tracer at 0.1μM) | NanoBRET Fold Response (FZD8; tracer at 1μM) | NanoBRET Fold Response (CCR9; tracer at 0.1μM, listed as amitriptyline-b-2-NB590) | NanoBRET Fold Response (CCR9; tracer at 1μM, listed as amitriptyline-b-2-NB590) | NanoBRET Fold Response (MC4R; tracer at 0.1μM) | NanoBRET Fold Response (MC4R; tracer at 1μM)
Cc1cc2c(s1)Nc1ccccc1N=C2N1CCN(CCCNC(=O)CCOCCOCCOCCOCCNC(=O)CCc2ccc3n2[B-](F)(F)[N+]2=C(c4ccc[nH]4)C=CC2=C3)CC1 [Olanzapine-a-2-NB590] | 0.99 | 1.04 | 0.95 | 0.94 | 1.03 | 1.17 | 1.00 | 1.07 |  |  |  |  |  |  |  | 
N#CN=C(NCCCOc1cccc(CN2CCCCC2)c1)NCCNC(=O)CCOCCOCCOCCOCCNC(=O)CCc1ccc2n1[B-](F)(F)[N+]1=C(c3ccc[nH]3)C=CC1=C2 [Aminopotentidine-2-NB590] | 1.03 | 0.99 | 0.98 | 1.01 | 1.09 | 1.11 | 0.99 | 0.89 |  |  |  |  |  |  |  | 
Cc1nc2n(c(=O)c1CCN1CCC(c3noc4cc(F)ccc34)CC1)CCCC2OC(=O)NCCOCCOCCOCCOCCNC(=O)CCc1ccc2n1[B-](F)(F)[N+]1=C(c3ccc[nH]3)C=CC1=C2 (centres unmarked) [Risperidone-2-NB590] | 0.92 | 0.99 | 1.02 | 1.12 | 1.02 | 0.94 | 1.03 | 1.05 |  |  |  |  |  |  |  | 
CN(C)CCC=C1c2ccccc2CCc2ccc(C(=O)NCCNC(=O)CCOCCOCCOCCOCCNC(=O)CCc3ccc4n3[B-](F)(F)[N+]3=C(c5ccc[nH]5)C=CC3=C4)cc21 [Amitriptyline-b-2-NB590] |  |  |  |  |  |  |  |  | 0.95 | 0.99 | 1.03 | 1.00 | 0.81 | 0.84 | 1.00 | 1.02
